Literature values in patent publication US20240139186A1, “METHODS OF TREATING HIV” (Janssen Sciences Ireland Unlimited Company, priority 2019, published 2024).

Settings: adult and pediatric participants receiving abacavir in clinical studies

hypersensitivity reactions reported, proportion of participants: approximately 5%
SMILES: Nc1nc(NC2CC2)c2ncn([C@H]3C=C[C@@H](CO)C3)c2n1 [abacavir]
